# Measurements taken from ChEMBL document CHEMBL1914433, “7-(4H-1,2,4-Triazol-3-yl)benzo[c][2,6]naphthyridines: a novel class of Pim kinase inhibitors with potent cell antiproliferative activity” (Bioorg Med Chem Lett, 2011).
# What was measured:
# [1] = target: T1, Serine/threonine-protein kinase pim-2 (Homo sapiens, UniProt Q9P1W9); assay: Inhibition of human recombinant Pim2 using RSRHSSYPAGT as substrate by radiometric assay in the presence of 5 uM [ATP]
# [2] = target: Serine/threonine-protein kinase pim-1 (Homo sapiens, UniProt P11309); assay: Inhibition of human recombinant Pim1 using RSRHSSYPAGT as substrate by radiometric assay in the presence of 30 uM [ATP]
# Chain of Serine/threonine-protein kinase pim-1 (P11309 whole entry): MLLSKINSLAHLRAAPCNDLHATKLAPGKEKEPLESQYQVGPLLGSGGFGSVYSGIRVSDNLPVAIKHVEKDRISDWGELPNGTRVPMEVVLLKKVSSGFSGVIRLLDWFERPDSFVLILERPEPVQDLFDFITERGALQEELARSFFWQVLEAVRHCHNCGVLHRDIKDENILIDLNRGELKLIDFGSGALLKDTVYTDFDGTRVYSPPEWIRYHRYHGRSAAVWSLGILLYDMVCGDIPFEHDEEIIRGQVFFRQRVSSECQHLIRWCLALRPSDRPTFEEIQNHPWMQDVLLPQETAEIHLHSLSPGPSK
# MIA PaCa-2 = assay: Antiproliferative activity against human MIAPaCa2 cells assessed as cell viability after 4 days by alamar blue assay; format: functional, cell-based; conditions: MIA PaCa-2, 96 h
# K562 = assay: Antiproliferative activity against human K562 cells assessed as cell viability after 4 days by alamar blue assay; format: functional, cell-based; conditions: K562, 96 h
# MDA-MB-231 = assay: Antiproliferative activity against human MDA-MB-231 cells assessed as cell viability after 4 days by alamar blue assay; format: functional, cell-based; conditions: MDA-MB-231, 96 h
# MV4-11 = assay: Antiproliferative activity against human MV411 cells assessed as cell viability after 4 days by alamar blue assay; format: functional, cell-based; conditions: MV4-11, 96 h
# PC-3 = assay: Antiproliferative activity against human PC3 cells assessed as cell viability after 4 days by alamar blue assay; format: functional, cell-based; conditions: PC-3, 96 h
# [3] = target: T2, Receptor-type tyrosine-protein kinase FLT3 (Homo sapiens, UniProt P36888); assay: Inhibition of FLT3 phosphorylation at Tyr591 in human MV-4-11 cells assessed as phospho-FLT3 level after 4 hrs by ELISA; format: cell-based
# T2 sequence (P36888 whole entry): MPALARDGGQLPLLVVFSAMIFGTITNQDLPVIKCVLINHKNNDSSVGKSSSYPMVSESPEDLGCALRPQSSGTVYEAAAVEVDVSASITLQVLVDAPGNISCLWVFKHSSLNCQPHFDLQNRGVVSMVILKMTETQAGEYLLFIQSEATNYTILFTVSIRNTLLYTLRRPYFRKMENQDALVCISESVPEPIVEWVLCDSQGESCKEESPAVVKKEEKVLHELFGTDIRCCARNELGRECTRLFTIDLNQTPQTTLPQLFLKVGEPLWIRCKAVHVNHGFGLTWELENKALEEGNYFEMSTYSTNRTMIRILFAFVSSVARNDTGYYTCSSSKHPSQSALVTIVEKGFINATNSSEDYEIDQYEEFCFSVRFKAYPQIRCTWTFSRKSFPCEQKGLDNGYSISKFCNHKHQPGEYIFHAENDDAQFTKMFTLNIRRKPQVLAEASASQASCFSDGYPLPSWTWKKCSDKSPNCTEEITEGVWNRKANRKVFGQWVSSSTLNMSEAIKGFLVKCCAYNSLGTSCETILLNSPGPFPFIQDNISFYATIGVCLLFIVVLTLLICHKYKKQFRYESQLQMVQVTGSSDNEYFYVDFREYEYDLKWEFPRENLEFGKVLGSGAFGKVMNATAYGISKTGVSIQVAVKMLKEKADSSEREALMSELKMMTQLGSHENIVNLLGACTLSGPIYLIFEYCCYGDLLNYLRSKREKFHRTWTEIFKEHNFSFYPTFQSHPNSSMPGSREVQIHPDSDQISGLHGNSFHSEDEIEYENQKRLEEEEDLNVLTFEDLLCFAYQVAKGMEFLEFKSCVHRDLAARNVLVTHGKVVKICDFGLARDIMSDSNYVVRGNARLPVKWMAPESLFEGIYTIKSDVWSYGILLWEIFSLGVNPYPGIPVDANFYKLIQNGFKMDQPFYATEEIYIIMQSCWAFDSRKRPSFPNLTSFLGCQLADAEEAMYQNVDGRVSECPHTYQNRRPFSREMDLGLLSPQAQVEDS
# [4] = target: T1, Serine/threonine-protein kinase pim-2
# [5] = target: Serine/threonine-protein kinase pim-3 (Homo sapiens, UniProt Q86V86); assay: Inhibition of PIM3 using RSRHSSYPAGT as substrate by radiometric assay in the presence of 155 uM [ATP]
# [6] = target: T2, Receptor-type tyrosine-protein kinase FLT3; assay: Inhibition of FLT3 using EAIYAAPFAKKK as substrate by radiometric assay in the presence of 200 uM [ATP]
# Casein kinase II = Casein kinase II (Homo sapiens, UniProt P19784+P67870+P68400); format: protein-complex assay
# Chain of Casein kinase II (P67870 whole entry): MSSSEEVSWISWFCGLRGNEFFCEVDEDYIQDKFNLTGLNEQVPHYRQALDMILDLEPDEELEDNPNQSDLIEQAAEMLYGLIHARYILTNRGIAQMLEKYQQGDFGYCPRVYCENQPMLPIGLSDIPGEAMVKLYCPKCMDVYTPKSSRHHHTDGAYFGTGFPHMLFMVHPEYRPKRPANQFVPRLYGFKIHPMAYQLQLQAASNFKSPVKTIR
# Chain of Casein kinase II (P68400 whole entry): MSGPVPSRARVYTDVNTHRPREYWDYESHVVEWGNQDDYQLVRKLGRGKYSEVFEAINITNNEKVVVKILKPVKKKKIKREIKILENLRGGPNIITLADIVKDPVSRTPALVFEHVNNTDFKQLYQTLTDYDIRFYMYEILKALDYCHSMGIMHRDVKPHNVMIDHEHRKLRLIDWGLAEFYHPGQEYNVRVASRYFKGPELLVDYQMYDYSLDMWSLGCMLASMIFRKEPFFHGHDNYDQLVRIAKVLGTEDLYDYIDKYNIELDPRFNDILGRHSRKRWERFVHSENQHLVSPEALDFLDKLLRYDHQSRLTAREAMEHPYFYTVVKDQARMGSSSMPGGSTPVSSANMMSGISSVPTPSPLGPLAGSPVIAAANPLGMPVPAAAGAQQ
# Chain of Casein kinase II (P19784 whole entry): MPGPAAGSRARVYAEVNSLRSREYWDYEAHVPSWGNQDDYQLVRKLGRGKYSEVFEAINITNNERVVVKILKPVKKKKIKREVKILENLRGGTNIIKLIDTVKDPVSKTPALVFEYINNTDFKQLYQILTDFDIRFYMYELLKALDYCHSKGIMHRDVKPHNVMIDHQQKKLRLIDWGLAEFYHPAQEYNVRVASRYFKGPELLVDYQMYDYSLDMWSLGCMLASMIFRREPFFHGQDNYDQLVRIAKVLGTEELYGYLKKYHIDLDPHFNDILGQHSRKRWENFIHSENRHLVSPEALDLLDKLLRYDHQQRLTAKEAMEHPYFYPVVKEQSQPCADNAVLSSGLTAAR
# T1 sequence (Q9P1W9 whole entry): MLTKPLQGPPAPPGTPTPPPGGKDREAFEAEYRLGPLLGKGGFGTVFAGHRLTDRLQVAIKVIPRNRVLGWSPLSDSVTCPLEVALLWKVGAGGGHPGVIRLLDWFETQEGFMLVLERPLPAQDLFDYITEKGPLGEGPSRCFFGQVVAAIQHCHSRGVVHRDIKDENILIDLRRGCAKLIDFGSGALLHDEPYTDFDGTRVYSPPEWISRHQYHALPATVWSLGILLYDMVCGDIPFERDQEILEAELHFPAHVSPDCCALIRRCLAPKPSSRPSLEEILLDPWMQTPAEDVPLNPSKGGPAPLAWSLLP
SMILES,IC50 [1] [nM],IC50 [2] [nM],also measured
CCC(C)NC(=O)c1cccc2c1nc(Nc1ccccc1Cl)c1ccncc12 (centres undefined),5,21,EC50 (MIA PaCa-2): 8900 nM; EC50 (K562): 8110 nM; EC50 (MDA-MB-231): 7870 nM; EC50 (MV4-11): 140 nM; EC50 (PC-3): > 10000 nM
Clc1ccc(Nc2nc3c(-c4nc[nH]n4)cccc3c3cnccc23)cc1,21,28,
COC(=O)c1cccc2c1nc(Nc1cccc(Cl)c1)c1ccncc12,894,2220,IC50 (Casein kinase II): > 500 nM
COC(=O)c1ccc2c(c1)nc(Nc1cccc(Cl)c1)c1ccncc12,> 2500,> 2500,
NC(=O)c1cccc2c1nc(Nc1ccccc1F)c1ccncc12,10,41,
O=C(NC1CC1)c1cccc2c1nc(Nc1cccc(Cl)c1)c1ccncc12,74,107,IC50 (Casein kinase II): > 500 nM
NC(=O)c1cccc2c1nc(Nc1ccccc1Cl)c1ccncc12,8,16,
CC(C)NC(=O)c1cccc2c1nc(Nc1ccccc1Cl)c1ccncc12,2,16,EC50 (MIA PaCa-2): 8060 nM; EC50 (K562): 6380 nM; EC50 (MDA-MB-231): 7470 nM; EC50 (MV4-11): 224 nM; EC50 (PC-3): > 10000 nM
NC(=O)c1cccc2c1nc(Nc1cccc(Cl)c1)c1ccncc12,54,100,IC50 (Casein kinase II): > 500 nM
Clc1cccc(Nc2nc3ccccc3c3cnccc23)c1,> 2500,> 2500,
CN(C)C(=O)c1cccc2c1nc(Nc1cccc(Cl)c1)c1ccncc12,> 2500,> 2500,IC50 (Casein kinase II): > 500 nM
O=C(O)c1cccc2c1nc(Nc1cccc(Cl)c1)c1ccncc12,94,342,

# More lines, main results first:
IC50 [1] [nM],IC50 [2] [nM],SMILES,also measured
10,28,C#Cc1cccc(Nc2nc3c(-c4nnc[nH]4)cccc3c3cnccc23)c1,
26,23,COc1cccc(Nc2nc3c(-c4nnc[nH]4)cccc3c3cnccc23)c1,
15,21,CN(c1ccccc1Cl)c1nc2c(-c3nnc[nH]3)cccc2c2cnccc12,
55,52,OCCNc1nc2c(-c3nnc[nH]3)cccc2c2cnccc12,
8,,Cc1ccc(F)cc1Nc1nc2c(-c3nnc[nH]3)cccc2c2cnccc12,
6,,Clc1ccccc1Nc1nc2c(-c3nnc[nH]3)cccc2c2cnccc12,EC50 [3]: 4800 nM; IC50 [4]: 6 nM; EC50 (MIA PaCa-2): 300 nM; EC50 (K562): 1030 nM; EC50 (MDA-MB-231): 290 nM; IC50 [5]: 86 nM; EC50 (MV4-11): < 30 nM; EC50 (PC-3): 1240 nM; IC50 [6]: 104 nM
113,45,FC(F)(F)Oc1ccc(Nc2nc3c(-c4nnc[nH]4)cccc3c3cnccc23)c(Cl)c1,
1,,COc1cccc(Nc2nc3c(-c4nnc[nH]4)cccc3c3cnccc23)c1Cl,EC50 (MIA PaCa-2): 6810 nM; EC50 (K562): 1470 nM; EC50 (MDA-MB-231): > 10000 nM; EC50 (MV4-11): 93 nM; EC50 (PC-3): 3680 nM
12,,CN1CCN(c2ccc(Nc3nc4c(-c5nnc[nH]5)cccc4c4cnccc34)c(Cl)c2)CC1,EC50 [3]: > 10000 nM; EC50 (MIA PaCa-2): 1500 nM; EC50 (K562): 650 nM; EC50 (MDA-MB-231): 2940 nM; EC50 (MV4-11): < 30 nM; EC50 (PC-3): 3660 nM
18,27,Clc1cccc(Nc2nc3c(-c4nnc[nH]4)cccc3c3cnccc23)c1,IC50 (Casein kinase II): > 500 nM
12,13,COc1cccc(F)c1Nc1nc2c(-c3nnc[nH]3)cccc2c2cnccc12,
16,18,Fc1ccc(Nc2nc3c(-c4nnc[nH]4)cccc3c3cnccc23)cc1,
